The target of the assay is T1, PPM1D (Mus musculus, UniProt Q9QZ67).
T1 construct: His-mousePPM1D (1–413)
T1 sequence (Q9QZ67 1-413): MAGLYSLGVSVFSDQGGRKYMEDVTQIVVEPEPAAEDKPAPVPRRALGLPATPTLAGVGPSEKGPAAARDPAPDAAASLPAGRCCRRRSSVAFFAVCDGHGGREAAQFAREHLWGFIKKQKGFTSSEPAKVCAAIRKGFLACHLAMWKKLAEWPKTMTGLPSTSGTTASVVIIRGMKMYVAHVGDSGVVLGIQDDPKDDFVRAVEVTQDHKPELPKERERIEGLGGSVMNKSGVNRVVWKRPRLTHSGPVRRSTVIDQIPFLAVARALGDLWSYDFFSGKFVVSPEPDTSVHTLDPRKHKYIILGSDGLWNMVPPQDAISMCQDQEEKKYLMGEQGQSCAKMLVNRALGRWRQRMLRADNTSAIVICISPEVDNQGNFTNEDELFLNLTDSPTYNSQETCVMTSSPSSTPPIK
In words: in vitro phosphatase assay, released free phosphate by BIOMOL GREEN, p53-derived peptide substrate. Format: biochemical.

Each structure is given as a SMILES string.

As a reminder, the IC50 is the concentration needed to halve the response being measured. Take `CC[Si](CC)(CC)O[C@@H]1CCC[C@@H]2[C@@H]1C[C@H](O[Si](C)(C)C(C)(C)C)C[C@@]2(C)C(=O)O` [SL-176]: the IC50 was found to be 0.112 ± 0.012 µM.

The values are drawn from article PMC6392468, “Inhibition of lipid droplet formation by Ser/Thr protein phosphatase PPM1D inhibitor, SL-176” (PLoS ONE, 2019).
